Measurements from patent publication US20050282755A1, “Compositions having antimicrobial activity and uses thereof” (priority 2004, published 2005).
Values after ≈ are worked out from the molar mass of the structure shown. Non-standard residues stand in square brackets, D forms with d. Residues, ends and D or L forms follow the SMILES beside them. βAla = NCCC(=O)O

How the values were obtained:
[1] = tested on: Staphylococcus aureus ATCC 29213; assay: MIC, NCCLS M7-A6 broth microdilution, cation-adjusted Mueller Hinton broth (Table 9, no superscript); type: cell-based; settings: ATCC 29213
Procedure: (§1) Cation-adjusted Mueller Hinton broth was used in the broth microdilution method. In brief, a log-phase bacterial suspension was used to inoculate wells of a 96-well plate so that the final inoculum for each well contained 5×10^5 to 1×10^6 CFU/milliliter. […] Plates were incubated overnight at 37° C. The lowest concentration of peptide that contained no visible growth as evidenced by a lack of turbidity when compared to the control (no peptide) was determined as the MIC. Unless otherwise noted, MIC values listed in Table 9 utilized this method of MIC determination.

Salmonella dublin (Lane) = assay: MIC, NCCLS M7-A6 broth microdilution (Table 9, no superscript); type: cell-based
Procedure: as §1

MIC S. aureus [1] [µg/mL]	MIC S. dublin (Salmonella dublin (Lane)) [µg/mL]	Structure (SMILES)
>64	64 (≈ 17.9 µM)	CSCC[C@H](NC(=O)[C@H](Cc1ccccc1)NC(=O)[C@H](CC(N)=O)NC(=O)[C@H](CCCNC(=N)N)NC(=O)[C@H](CO)NC(=O)[C@H](Cc1c[nH]c2ccccc12)NC(=O)[C@H](CC(=O)O)NC(=O)[C@H](CCCNC(=N)N)NC(=O)[C@H](Cc1c[nH]c2ccccc12)NC(=O)[C@H](CCCNC(=N)N)NC(=O)[C@H](CO)NC(=O)[C@H](CCCNC(=N)N)NC(=O)CNC(=O)[C@@H](NC(=O)[C@H](CCCNC(=N)N)NC(=O)[C@H](CO)NC(=O)[C@@H](NC(=O)[C@H](CCCNC(=N)N)NC(=O)[C@@H](NC(C)=O)[C@@H](C)O)C(C)C)[C@@H](C)O)C(=O)N[C@@H](CCCNC(=N)N)C(=O)N[C@@H](C)C(=O)N[C@@H](C)C(=O)N[C@@H](CCCNC(=N)N)C(=O)N[C@@H](CCCNC(=N)N)C(=O)N[C@@H](CCCNC(=N)N)C(=O)N[C@@H](CCCNC(=N)N)C(=O)N[C@@H](CCCNC(=N)N)C(N)=O [Peptide 10] (Ac-TRVSRTGRSRWRDWSRNFMRAARRRRR-NH2)
64 (≈ 17.2 µM)	32 (≈ 8.58 µM)	CSCC[C@H](NC(=O)[C@H](Cc1ccccc1)NC(=O)[C@H](CC(N)=O)NC(=O)[C@H](CCCNC(=N)N)NC(=O)[C@H](CO)NC(=O)[C@H](Cc1c[nH]c2ccccc12)NC(=O)[C@H](CC(=O)O)NC(=O)[C@H](CCCNC(=N)N)NC(=O)[C@H](Cc1c[nH]c2ccccc12)NC(=O)[C@H](CCCNC(=N)N)NC(=O)[C@H](CO)NC(=O)[C@H](CCCNC(=N)N)NC(=O)CNC(=O)[C@@H](NC(=O)[C@H](CCCNC(=N)N)NC(=O)[C@H](CO)NC(=O)[C@@H](NC(=O)[C@H](CCCNC(=N)N)NC(=O)[C@@H](NC(C)=O)[C@@H](C)O)C(C)C)[C@@H](C)O)C(=O)N[C@@H](CCCNC(=N)N)C(=O)N[C@@H](C)C(=O)N[C@@H](C)C(=O)N[C@@H](CCCNC(=N)N)C(=O)N[C@@H](CCCNC(=N)N)C(=O)N[C@@H](CCCNC(=N)N)C(=O)N[C@@H](CCCNC(=N)N)C(=O)N[C@@H](CCCNC(=N)N)C(=O)N[C@@H](CCCNC(=N)N)C(N)=O [Peptide 11] (Ac-TRVSRTGRSRWRDWSRNFMRAARRRRRR-NH2)
>64	>64	CSCC[C@H](NC(=O)[C@H](Cc1ccccc1)NC(=O)[C@H](CC(N)=O)NC(=O)[C@H](CCCNC(=N)N)NC(=O)[C@H](CO)NC(=O)[C@H](Cc1c[nH]c2ccccc12)NC(=O)[C@H](CC(=O)O)NC(=O)[C@H](CCCNC(=N)N)NC(=O)[C@H](Cc1c[nH]c2ccccc12)NC(=O)[C@H](CCCNC(=N)N)NC(=O)[C@H](CO)NC(=O)[C@H](CCCNC(=N)N)NC(=O)CNC(=O)[C@@H](NC(=O)[C@H](CCCNC(=N)N)NC(=O)[C@H](CO)NC(=O)[C@@H](NC(=O)[C@H](CCCNC(=N)N)NC(=O)[C@@H](NC(=O)CCN)[C@@H](C)O)C(C)C)[C@@H](C)O)C(=O)N[C@@H](CCCNC(=N)N)C(=O)N[C@@H](C)C(=O)N[C@@H](C)C(N)=O [Peptide 18] (H-[βAla]TRVSRTGRSRWRDWSRNFMRAA-NH2)
>64	32 (≈ 11.1 µM)	CSCC[C@H](NC(=O)[C@H](Cc1ccccc1)NC(=O)[C@H](CC(N)=O)NC(=O)[C@H](CCCNC(=N)N)NC(=O)[C@H](CO)NC(=O)[C@H](Cc1c[nH]c2ccccc12)NC(=O)[C@H](CC(=O)O)NC(=O)[C@H](CCCNC(=N)N)NC(=O)[C@H](Cc1c[nH]c2ccccc12)NC(=O)[C@H](CCCNC(=N)N)NC(=O)[C@H](CO)NC(=O)[C@H](CCCNC(=N)N)NC(=O)CNC(=O)[C@@H](NC(=O)[C@H](CCCNC(=N)N)NC(=O)[C@H](CO)NC(=O)[C@@H](NC(=O)[C@H](CCCNC(=N)N)NC(=O)[C@@H](NC(C)=O)[C@@H](C)O)C(C)C)[C@@H](C)O)C(=O)N[C@@H](CCCNC(=N)N)C(=O)N[C@@H](CC(C)C)C(=O)N[C@@H](CC(C)C)C(N)=O [Peptide 19] (Ac-TRVSRTGRSRWRDWSRNFMRLL-NH2)

Second part, the compound before the results:

Structure (SMILES)	MIC S. aureus [1] [µg/mL]	MIC S. dublin (Salmonella dublin (Lane)) [µg/mL]
CSCC[C@H](NC(=O)[C@H](Cc1ccccc1)NC(=O)[C@H](CC(N)=O)NC(=O)[C@H](CCCNC(=N)N)NC(=O)[C@H](CO)NC(=O)[C@H](Cc1c[nH]c2ccccc12)NC(=O)[C@H](CC(=O)O)NC(=O)[C@H](CCCNC(=N)N)NC(=O)[C@H](Cc1c[nH]c2ccccc12)NC(=O)[C@H](CCCNC(=N)N)NC(=O)[C@H](CO)NC(=O)[C@H](CCCNC(=N)N)NC(=O)CNC(=O)[C@@H](NC(=O)[C@H](CCCNC(=N)N)NC(=O)[C@H](CO)NC(=O)[C@@H](NC(=O)[C@H](CCCNC(=N)N)NC(=O)[C@@H](NC(C)=O)[C@@H](C)O)C(C)C)[C@@H](C)O)C(=O)N[C@@H](CCCNC(=N)N)C(=O)N[C@@H](C)C(=O)N[C@@H](C)C(=O)N[C@@H](CCCCN)C(=O)N[C@@H](CCCCN)C(=O)N[C@@H](CCCCN)C(=O)N[C@@H](CCCCN)C(N)=O [Peptide 5] (Ac-TRVSRTGRSRWRDWSRNFMRAAKKKK-NH2)	>64	>64
CSCC[C@H](NC(=O)[C@H](Cc1ccccc1)NC(=O)[C@H](CC(N)=O)NC(=O)[C@H](CCCNC(=N)N)NC(=O)[C@H](CO)NC(=O)[C@H](Cc1c[nH]c2ccccc12)NC(=O)[C@H](CC(=O)O)NC(=O)[C@H](CCCNC(=N)N)NC(=O)[C@H](Cc1c[nH]c2ccccc12)NC(=O)[C@H](CCCNC(=N)N)NC(=O)[C@H](CO)NC(=O)[C@H](CCCNC(=N)N)NC(=O)CNC(=O)[C@@H](NC(=O)[C@H](CCCNC(=N)N)NC(=O)[C@H](CO)NC(=O)[C@@H](NC(=O)[C@H](CCCNC(=N)N)NC(=O)[C@@H](NC(C)=O)[C@@H](C)O)C(C)C)[C@@H](C)O)C(=O)N[C@@H](CCCNC(=N)N)C(=O)N[C@@H](C)C(=O)N[C@@H](C)C(=O)N[C@@H](CCCCN)C(=O)N[C@@H](CCCCN)C(=O)N[C@@H](CCCCN)C(=O)N[C@@H](CCCCN)C(=O)N[C@@H](CCCCN)C(N)=O [Peptide 6] (Ac-TRVSRTGRSRWRDWSRNFMRAAKKKKK-NH2)	>64	>64
CSCC[C@H](NC(=O)[C@H](Cc1ccccc1)NC(=O)[C@H](CC(N)=O)NC(=O)[C@H](CCCNC(=N)N)NC(=O)[C@H](CO)NC(=O)[C@H](Cc1c[nH]c2ccccc12)NC(=O)[C@H](CC(=O)O)NC(=O)[C@H](CCCNC(=N)N)NC(=O)[C@H](Cc1c[nH]c2ccccc12)NC(=O)[C@H](CCCNC(=N)N)NC(=O)[C@H](CO)NC(=O)[C@H](CCCNC(=N)N)NC(=O)CNC(=O)[C@@H](NC(=O)[C@H](CCCNC(=N)N)NC(=O)[C@H](CO)NC(=O)[C@@H](NC(=O)[C@H](CCCNC(=N)N)NC(=O)[C@@H](NC(C)=O)[C@@H](C)O)C(C)C)[C@@H](C)O)C(=O)N[C@@H](CCCNC(=N)N)C(=O)N[C@@H](C)C(=O)N[C@@H](C)C(=O)N[C@@H](CCCCN)C(=O)N[C@@H](CCCCN)C(=O)N[C@@H](CCCCN)C(=O)N[C@@H](CCCCN)C(=O)N[C@@H](CCCCN)C(=O)N[C@@H](CCCCN)C(N)=O [Peptide 7] (Ac-TRVSRTGRSRWRDWSRNFMRAAKKKKKK-NH2)	>64	>64
CSCC[C@H](NC(=O)[C@H](Cc1ccccc1)NC(=O)[C@H](CC(N)=O)NC(=O)[C@H](CCCNC(=N)N)NC(=O)[C@H](CO)NC(=O)[C@H](Cc1c[nH]c2ccccc12)NC(=O)[C@H](CC(=O)O)NC(=O)[C@H](CCCNC(=N)N)NC(=O)[C@H](Cc1c[nH]c2ccccc12)NC(=O)[C@H](CCCNC(=N)N)NC(=O)[C@H](CO)NC(=O)[C@H](CCCNC(=N)N)NC(=O)CNC(=O)[C@@H](NC(=O)[C@H](CCCNC(=N)N)NC(=O)[C@H](CO)NC(=O)[C@@H](NC(=O)[C@H](CCCNC(=N)N)NC(=O)[C@@H](NC(=O)[C@H](C)NC(=O)[C@H](C)NC(=O)[C@H](CCCCN)NC(=O)[C@H](CCCCN)NC(=O)[C@H](CCCCN)NC(=O)[C@H](CCCCN)NC(C)=O)[C@@H](C)O)C(C)C)[C@@H](C)O)C(=O)N[C@@H](CCCNC(=N)N)C(=O)N[C@@H](C)C(=O)N[C@@H](C)C(=O)N[C@@H](CCCCN)C(=O)N[C@@H](CCCCN)C(=O)N[C@@H](CCCCN)C(=O)N[C@@H](CCCCN)C(N)=O [Peptide 8] (Ac-KKKKAATRVSRTGRSRWRDWSRNFMRAAKKKK-NH2)	>64	>64
CSCC[C@H](NC(=O)[C@H](Cc1ccccc1)NC(=O)[C@H](CC(N)=O)NC(=O)[C@H](CCCNC(=N)N)NC(=O)[C@H](CO)NC(=O)[C@H](Cc1c[nH]c2ccccc12)NC(=O)[C@H](CC(=O)O)NC(=O)[C@H](CCCNC(=N)N)NC(=O)[C@H](Cc1c[nH]c2ccccc12)NC(=O)[C@H](CCCNC(=N)N)NC(=O)[C@H](CO)NC(=O)[C@H](CCCNC(=N)N)NC(=O)CNC(=O)[C@@H](NC(=O)[C@H](CCCNC(=N)N)NC(=O)[C@H](CO)NC(=O)[C@@H](NC(=O)[C@H](CCCNC(=N)N)NC(=O)[C@@H](NC(C)=O)[C@@H](C)O)C(C)C)[C@@H](C)O)C(=O)N[C@@H](CCCNC(=N)N)C(=O)N[C@@H](C)C(=O)N[C@@H](C)C(=O)N[C@@H](CCCNC(=N)N)C(=O)N[C@@H](CCCNC(=N)N)C(=O)N[C@@H](CCCNC(=N)N)C(=O)N[C@@H](CCCNC(=N)N)C(N)=O [Peptide 9] (Ac-TRVSRTGRSRWRDWSRNFMRAARRRR-NH2)	>64	>64
